# According to paper PMC12040169 (PLOS Biology, 2025):
# Assay: in vitro
# Details: human, hela cells, % viability
row,SMILES,"viability at 28.5 h, 10 µM [%]"
1,CC1CCc2n[nH]c(C(=O)NC3CN4CCC3CC4)c2C1 (stereo not shown) [CBK283193],108
2,CC1CCc2n[nH]c(C(=O)NCCCc3ccccn3)c2C1 (stereo not shown) [CBK283194],105
3,CC1CCc2n[nH]c(C(=O)N(C)CCc3ccncc3)c2C1 (stereo not shown) [CBK283195],99.5
4,CN(C)CCCN(Cc1ccc2ncccc2c1)Cc1ccco1 [CBK283197],112
5,CCN(Cc1ccccc1)Cc1nc2ccccc2c(=O)[nH]1 [CBK283203],95.6
6,CN(C)CCN(Cc1ccncc1)Cc1ccsc1 [CBK283206],102
7,O=C(NCCCCn1ccnc1)c1noc2c1CCCC2 [CBK283208],93.9
8,Cc1ccn(CCNC(=O)c2cc3ccc(F)cc3[nH]2)n1 [CBK283209],91.9
9,CCC(NC(=O)C(C)Cn1cccn1)c1ccc(F)cc1 (stereo not shown) [CBK283210],88.1
10,CN(CCc1ccncc1)C(=O)c1cc2ccc(F)cc2[nH]1 [CBK283215],81.3
11,C1=CCC(CN(CCCn2ccnc2)CC2CCOC2)CC1 (stereo not shown) [CBK283217],88.8
12,Cc1nc[nH]c1CN(CCCn1ccnc1)CC1CC=CCC1 (stereo not shown) [CBK283218],83
13,CCn1cncc1CN(CCCn1ccnc1)CC1CC=CCC1 (stereo not shown) [CBK283220],101
14,Cc1nn(C(C)C)c(C)c1CN(Cc1ccccn1)Cc1ccco1 [CBK283221],114
15,COc1cccc(C2(O)CCC3CN(C(C)=O)CC32)c1 (stereo not shown) [CBK283222],95.8
16,CCC1c2cccn2CCN1C(=O)c1cc(-c2ccccn2)n[nH]1 (stereo not shown) [CBK283224],102
17,Cn1cncc1CN(Cc1ccccc1)C1CC(C)(C)NC(C)(C)C1 [CBK283226],89.1
18,C=Cn1ncc(CN(CCCN(C)C)Cc2ccco2)c1C [CBK283228],96.8
19,Cc1ccc(CN(CCN(C)C)Cc2c(C)nc3sccn23)o1 [CBK283229],116
20,CC(C)C(=O)N[C@@H](C)Cn1c(C(F)(F)F)cc2cccnc21 [CBK283231],95.6
21,CCCC(=O)N[C@@H](C)Cn1c(C(F)(F)F)cc2cccnc21 [CBK283232],92.7
22,Cn1cc(CN(Cc2ccccc2)CC2CCCO2)cn1 (stereo not shown) [CBK283233],85.1
23,C=Cn1ncc(CN(CCN(C)C)Cc2ccc(C)o2)c1C [CBK283236],110
24,O=C(NC1CCCOC1)c1cnn(-c2ccc(F)cc2)c1 (stereo not shown) [CBK283248],89.4

row,SMILES,"viability at 28.5 h, 10 µM [%]"
1,CC(Cn1cccn1)C(=O)Nc1cccc(N2CCCC2)c1 (stereo not shown) [CBK283249],87.1
2,CC(Cc1cccs1)NC(=O)C(C)Cn1cccn1 (stereo not shown) [CBK283250],85.4
3,C[S+]([O-])CCNC(=O)c1cc(-c2ccc(F)cc2)no1 (stereo not shown) [CBK283251],89.6
4,Cc1ccc(OCCNC(=O)C(C)Cn2cccn2)cc1 (stereo not shown) [CBK283252],111
5,Cc1cc(C)c2[nH]c(C(=O)NCc3c(C)n[nH]c3C)c(C)c2c1 [CBK283254],87.4
6,FC(F)(F)c1[nH]c2ncccc2c1CN1CCSCC1 [CBK283257],87.7
7,COc1ccccc1CCCNC(=O)c1ccc2nc(C)[nH]c2c1 [CBK283258],84.7
8,Cc1nc2ccc(C(=O)NC(c3ccccc3)c3cccnc3)cc2[nH]1 (stereo not shown) [CBK283259],103
9,CC(C)(C)C(=O)NCCN1CCC(O)(c2ccc(F)cc2)CC1 [CBK283262],92
10,COc1cccc2c1cc(C(=O)NC1CCCN(C)C1)n2C (stereo not shown) [CBK283266],90.2
11,COc1cccc2c1cc(C(=O)NCCn1ccnc1C)n2C [CBK283267],101
12,CC1(C)CC(N(Cc2ccncc2)Cc2ccoc2)CC(C)(C)N1 [CBK283269],98.1
13,Cc1c(C(=O)N(C)Cc2cccn2C)[nH]c2ccccc12 [CBK283270],94.6
14,Cc1ccc(CN(Cc2cncn2C)CC2CCCO2)o1 (stereo not shown) [CBK283272],93.2
15,Cc1ncc(C(=O)NC2(c3ccccc3F)CCCC2)c(C)n1 [CBK283274],84.5
16,CCc1nc2cc(NC(=O)c3cc(C4CC4)nn3C)ccc2n1C [CBK283275],85.8
17,Cc1ccc(-c2cc(C(=O)NC3CN4CCC3CC4)[nH]n2)o1 (stereo not shown) [CBK283276],104
18,O=C(NCCn1nc2c(cc1=O)CCCCC2)c1cccs1 [CBK283277],100
19,O=C(NCCn1nc2c(cc1=O)CCCCC2)c1ccccc1 [CBK283278],85.7
20,O=C(NCCn1nc2c(cc1=O)CCCCC2)c1ccc(F)cc1 [CBK283279],93.3
21,Cc1nc2ccc(C(=O)NCCN3CCc4ccccc43)cc2[nH]1 [CBK283280],94.2
22,COc1cccc2c1cc(C(=O)NCCCc1ccccn1)n2C [CBK283283],83.7
23,CC1CC1C(=O)NCCN1CCC(O)(c2cccc(F)c2)CC1 (stereo not shown) [CBK283286],84.4
24,O=C(NCCCc1ccccn1)c1cnn(-c2ccc(F)cc2)c1 [CBK283287],87.6

row,SMILES,"viability at 28.5 h, 10 µM [%]"
1,O=C(NCCCC1CCOC1)c1cnn(-c2ccc(F)cc2)c1 (stereo not shown) [CBK283288],92.5
2,COc1ccccc1CC(C)NC(=O)c1cc(C2CC2)nn1C (stereo not shown) [CBK283290],83.8
3,Cc1ccc(CN(Cc2cnc(C)n2C)CC2CCCO2)o1 (stereo not shown) [CBK283291],100
4,CC(C)N1CCC(CNC(=O)c2cc(C3CCCCC3)no2)CC1 [CBK283293],98.5
5,CC(C)N1CCCC(CNC(=O)c2cc(C3CCCCC3)no2)C1 (stereo not shown) [CBK283294],97.2
6,Cc1nccn1CCNC(=O)c1cc(C2CCCCC2)no1 [CBK283295],89.6
7,CCCN1CCC(CNC(=O)c2cc(C3CCCCC3)no2)CC1 [CBK283297],98.2
8,Cc1cccc(C2(O)CCN(C(=O)c3ccc4nc(C)[nH]c4c3)CC2)c1 [CBK283299],102
9,Cc1nc2ccc(C(=O)N3CCC(O)(c4ccccc4C)CC3)cc2[nH]1 [CBK283300],95.8
10,Cc1nc2ccc(C(=O)NCCCN3Cc4ccccc4C3)cc2[nH]1 [CBK283301],90.3
11,Cc1ccc(C2(CN3CCN(Cc4ncc[nH]4)CC3)CC2)cc1 [CBK283306],95.9
12,Cc1ccc(C2(CN3CCN(Cc4cncn4C)CC3)CC2)cc1 [CBK283308],107
13,Cc1ccc(C(O)CN2CCC(O)(c3ccc(F)cc3)CC2)cc1 (stereo not shown) [CBK283309],94.5
14,Cc1ccc(C(O)CN2CCC(O)(c3ccccc3F)CC2)cc1 (stereo not shown) [CBK283310],93.8
15,OC(CN1CCC(O)(c2ccc(F)cc2)CC1)c1ccc(Cl)cc1 (stereo not shown) [CBK283311],89.6
16,OC(CN1CCC(O)(c2ccccc2F)CC1)c1ccc(Cl)cc1 (stereo not shown) [CBK283312],87
17,Cc1[nH]c2cc(C(=O)NCCn3nccc3C)ccc2c1C [CBK283313],92.8
18,CCc1c(C(=O)NCCn2ccnc2C)[nH]c2ccc(F)cc12 [CBK283314],92.9
19,Cc1c(C(=O)NCCCCn2ccnc2)oc2c(C)cccc12 [CBK283315],99.9
20,CCCN(CC1CCCO1)C(=O)c1cnn(-c2ccc(F)cc2)c1 (stereo not shown) [CBK283317],89.7
21,CCOC(=O)Cn1c(-c2ccc(OC)cc2)cc2cccnc21 [CBK283320],84.2
22,CC(=O)NCCN1CCC(O)(c2ccc(C)cc2)CC1 [CBK283321],87.6
23,Cc1ccc(C2(O)CCN(CCNC(=O)c3cccs3)CC2)cc1 [CBK283322],87.8
24,Cc1ccc(-c2cc(C(=O)N(C)Cc3cccn3C)[nH]n2)o1 [CBK283324],100

row,SMILES,"viability at 28.5 h, 10 µM [%]"
1,CC(=O)NC1CCN(CC2(c3ccc(F)cc3)CCCC2)CC1 [CBK283327],89
2,NC[C@H]1CC[C@H](C(=O)N2CCC(c3ccncc3)CC2)CC1 [CBK283332],110
3,CCOC(=O)C(C)n1nc(C)n2c(cc3sccc32)c1=O (stereo not shown) [CBK283333],67
4,O=C1NC2(CCc3ccccc31)CCN(C(=O)c1ccncc1)C2 (stereo not shown) [CBK283336],90.9
5,O=C1NC2(CCc3ccccc31)CCN(C(=O)c1ccccn1)C2 (stereo not shown) [CBK283337],96
6,Cc1ncccc1C(=O)N1CCC2(CCc3ccccc3C(=O)N2)C1 (stereo not shown) [CBK283338],108
7,O=C1CCCC[C@]2(CN(Cc3ccccc3)C[C@H]2c2ccccn2)N1 [CBK283340],82.6
8,Cc1cccc([C@@H]2CN(Cc3ccccc3)C[C@]23CCCCC(=O)N3)n1 [CBK283341],97.1
9,O=C1CCCC[C@]2(CN(Cc3ccccc3)C[C@H]2c2cccnc2)N1 [CBK283342],106
10,COc1ccc2c(c1)C(=O)NC1(CC2)CCN(Cc2ccccc2)C1 (stereo not shown) [CBK283343],95.2
11,Cc1ccc(CS(=O)(=O)N2CCC3(CC2)CNC(=O)C3)cc1 [CBK283344],88.5
12,O=C(C1CCCCC1)N1CC(n2nc(-c3cccs3)ccc2=O)C1 [CBK283346],99.2
13,O=C1CCC[C@]2(CN(Cc3ccccc3)C[C@H]2c2cccnc2)N1 [CBK283349],96.1
14,O=C1CC2(CCN(S(=O)(=O)c3ccc(F)cc3)CC2)CN1 [CBK283353],93.9
15,Cc1cc(F)ccc1S(=O)(=O)N1CCC2(CC1)CNC(=O)C2 [CBK283354],104
16,Fc1ccc(CN2CCC(c3nnc4n3CCCCC4)CC2)cc1F [CBK283356],86.3
17,O=C1CCC[C@]2(CN(C(=O)C3CC3)C[C@H]2c2ccccc2F)N1 [CBK283357],106
18,COCCC(=O)N1C[C@@H](c2ccccc2F)[C@@]2(CCCC(=O)N2)C1 [CBK283360],90.4
19,CCCC(=O)NC[C@H]1CC[C@H](c2nnc(-c3ccsc3)o2)CC1 [CBK283362],98.9
20,O=C1CCC[C@]2(CN(C(=O)C3CC3)C[C@H]2c2ccc(F)c(F)c2)N1 [CBK283364],111
21,O=C(C1CCC1)N1CCCC1c1nnc(-c2ccsc2)o1 (stereo not shown) [CBK283365],101
22,CC(=O)N1C[C@H](c2cccc(C)c2)[C@H]2CN(C3CCCC3)CC[C@H]21 [CBK283369],88.7
